From ChEMBL document CHEMBL3885861, “Open TG-GATES”

Organism: Rattus norvegicus
Assay: Open TG-GATES - Regimen: Daily Repeat
Format: toxicity, organism-based, Sprague-Dawley
Parameters: regimen Daily Repeat, gender Male, age 6 weeks
Details: in vivo, po, route gavage; for TP / gamma-GTP / A/G / ALP / ALT / AST / BUN / CRE / Ca / Cl / GLC / IP / K / LDH / Na / PL / RALB / TC / TG: tissue Plasma; for APTT / Bas / Eos / Fbg / Hb / Ht / Lym / MCH / MCHC / MCV / Mono / Neu / PT / Plat / RBC / Ret / WBC: tissue Blood; for KIDNEY_L / KIDNEY_R / KIDNEY_TOTAL: tissue Kidney; for LIVER: tissue Liver
[1] = 300 mg/kg, […], dose level Middle, time 28 day
[2] = 1000 mg/kg, 72 h, dose level High, time 3 day
[3] = 1000 mg/kg, […], dose level High, time 7 day
[4] = 1000 mg/kg, […], dose level High, time 14 day
[5] = 1000 mg/kg, […], dose level High, time 28 day

O=C(O)c1ccccc1Nc1ccccc1 [FENAMIC ACID]
TP [1]: 6.4 g/dL | gamma-GTP [1]: 1 IU/L | TERMINAL_BW [2]: 219.3 g | APTT [2]: 17 s | Bas [2]: 0.3% | Eos [2]: 0.7% | Fbg [2]: 440 mg/dL | Hb [2]: 13.3 g/dL | Ht [2]: 39.3% | Lym [2]: 50.3% | MCH [2]: 20.5 pg | MCHC [2]: 33.8% | MCV [2]: 60.5 fL | Mono [2]: 3.3% | Neu [2]: 44.3% | PT [2]: 14 s | Plat [2]: 127 x10_4/uL | RBC [2]: 650 x10_4/ul | Ret [2]: 5.7% | WBC [2]: 132.2 x10_2/uL | KIDNEY_L [2]: 1.1 g | KIDNEY_R [2]: 1.1 g | KIDNEY_TOTAL [2]: 2.1 g | LIVER [2]: 10.8 g | A/G [2]: 0.9 | ALP [2]: 1423.7 IU/L | ALT [2]: 37.7 IU/L | AST [2]: 58.3 IU/L | BUN [2]: 17 mg/dL | CRE [2]: 0.2 mg/dL | Ca [2]: 11.4 mg/dL | Cl [2]: 109 meq/L | GLC [2]: 165.7 mg/dL | IP [2]: 6.6 mg/dL | K [2]: 4.4 meq/L | LDH [2]: 100.3 IU/L | Na [2]: 143.3 meq/L | PL [2]: 148.7 mg/dL | RALB [2]: 2.5 g/dL | TC [2]: 67 mg/dL | TG [2]: 89.3 mg/dL | TP [2]: 5.3 g/dL | gamma-GTP [2]: 1.3 IU/L | TERMINAL_BW [3]: 253.6 g | TERMINAL_BW [4]: 281.5 g | TERMINAL_BW [5]: 383.3 g | APTT [3]: 16.6 s | Bas [3]: 1% | Eos [3]: 0.7% | Fbg [3]: 290.7 mg/dL | Hb [3]: 12.6 g/dL | Ht [3]: 37% | Lym [3]: 72.3% | MCH [3]: 20.5 pg | MCHC [3]: 34% | MCV [3]: 60.2 fL | Mono [3]: 3% | Neu [3]: 23.3% | PT [3]: 14.1 s | Plat [3]: 156 x10_4/uL | RBC [3]: 616 x10_4/ul | Ret [3]: 7.7% | WBC [3]: 161.4 x10_2/uL | APTT [4]: 32.8 s | Bas [4]: 0.7% | Eos [4]: 0.3% | Fbg [4]: 473.3 mg/dL | Hb [4]: 14 g/dL | Ht [4]: 41.7% | Lym [4]: 53.3% | MCH [4]: 21.1 pg | MCHC [4]: 33.5% | MCV [4]: 63.2 fL | Mono [4]: 3.7% | Neu [4]: 41.7% | PT [4]: 13.2 s | Plat [4]: 171.8 x10_4/uL | RBC [4]: 674 x10_4/ul | Ret [4]: 13.6% | WBC [4]: 149.3 x10_2/uL | APTT [5]: 17.1 s | Bas [5]: 0% | Eos [5]: 0.5% | Fbg [5]: 334.5 mg/dL | Hb [5]: 12.2 g/dL | Ht [5]: 36% | Lym [5]: 69% | MCH [5]: 19.6 pg | MCHC [5]: 34% | MCV [5]: 57.6 fL | Mono [5]: 2.5% | Neu [5]: 27.5% | PT [5]: 13.9 s | Plat [5]: 139.6 x10_4/uL | RBC [5]: 626 x10_4/ul | Ret [5]: 7.5% | WBC [5]: 154.4 x10_2/uL | KIDNEY_L [3]: 1.1 g | KIDNEY_R [3]: 1.1 g | KIDNEY_TOTAL [3]: 2.3 g | KIDNEY_L [4]: 2.1 g | KIDNEY_R [4]: 1.8 g | KIDNEY_TOTAL [4]: 4 g | KIDNEY_L [5]: 1.7 g | KIDNEY_R [5]: 1.6 g | KIDNEY_TOTAL [5]: 3.3 g | LIVER [3]: 12.5 g | LIVER [4]: 13.5 g | LIVER [5]: 18.7 g | A/G [3]: 0.9 | ALP [3]: 1573.3 IU/L | ALT [3]: 38 IU/L | AST [3]: 62.7 IU/L | BUN [3]: 20 mg/dL | CRE [3]: 0.3 mg/dL | Ca [3]: 11.5 mg/dL | Cl [3]: 107 meq/L | GLC [3]: 177.3 mg/dL | IP [3]: 6.3 mg/dL | K [3]: 4.3 meq/L | LDH [3]: 117 IU/L | Na [3]: 144 meq/L | PL [3]: 155.7 mg/dL | RALB [3]: 2.6 g/dL | TC [3]: 87.7 mg/dL | TG [3]: 75.3 mg/dL | TP [3]: 5.6 g/dL | gamma-GTP [3]: 1 IU/L | A/G [4]: 0.9 | ALP [4]: 1270.3 IU/L | ALT [4]: 38.3 IU/L | AST [4]: 57.3 IU/L | BUN [4]: 118.3 mg/dL | CRE [4]: 0.5 mg/dL | Ca [4]: 11.8 mg/dL | Cl [4]: 105.7 meq/L | GLC [4]: 156.7 mg/dL | IP [4]: 11 mg/dL | K [4]: 5.2 meq/L | LDH [4]: 210 IU/L | Na [4]: 145.3 meq/L | PL [4]: 140.7 mg/dL | RALB [4]: 2.9 g/dL | TC [4]: 65 mg/dL | TG [4]: 94.7 mg/dL | TP [4]: 6.3 g/dL | gamma-GTP [4]: 2 IU/L | A/G [5]: 0.9 | ALP [5]: 1013.5 IU/L | ALT [5]: 36.5 IU/L | AST [5]: 61.5 IU/L | BUN [5]: 20 mg/dL | CRE [5]: 0.3 mg/dL | Ca [5]: 10.8 mg/dL | Cl [5]: 105 meq/L | GLC [5]: 182.5 mg/dL | IP [5]: 5.5 mg/dL | K [5]: 4.2 meq/L | LDH [5]: 155.5 IU/L | Na [5]: 144.5 meq/L | PL [5]: 166 mg/dL | RALB [5]: 2.5 g/dL | TC [5]: 80 mg/dL | TG [5]: 92 mg/dL | TP [5]: 5.5 g/dL | gamma-GTP [5]: 1 IU/L
